Test results taken from the kinase profiling compilation of Christmann-Franck et al. (2016).

Experiments:
Assay in all cases: radiometric filter-binding kinase assay
MAP2K1 (human) = MAP2K1 (human) (UniProt Q02750)
MAP3K5 (human) = MAP3K5 (human) (UniProt Q99683)
CaMK1 (human) = CaMK1 (human) (UniProt Q14012)
STK3 (human) = STK3 (human) (UniProt Q13188)
DYRK3 (human) = DYRK3 (human) (UniProt O43781)
BRSK2 (human) = BRSK2 (human) (UniProt Q8IWQ3)
INSR (human) = INSR (human) (UniProt P06213)
EPHB2 (human) = EPHB2 (human) (UniProt P29323); conditions: compound 0.1 µM
MAPK9 (human) = MAPK9 (human) (UniProt P45984)
FLT1 (human) = FLT1 (human) (UniProt P17948)
Chain of FLT1 (human) (P17948 whole entry, looked up): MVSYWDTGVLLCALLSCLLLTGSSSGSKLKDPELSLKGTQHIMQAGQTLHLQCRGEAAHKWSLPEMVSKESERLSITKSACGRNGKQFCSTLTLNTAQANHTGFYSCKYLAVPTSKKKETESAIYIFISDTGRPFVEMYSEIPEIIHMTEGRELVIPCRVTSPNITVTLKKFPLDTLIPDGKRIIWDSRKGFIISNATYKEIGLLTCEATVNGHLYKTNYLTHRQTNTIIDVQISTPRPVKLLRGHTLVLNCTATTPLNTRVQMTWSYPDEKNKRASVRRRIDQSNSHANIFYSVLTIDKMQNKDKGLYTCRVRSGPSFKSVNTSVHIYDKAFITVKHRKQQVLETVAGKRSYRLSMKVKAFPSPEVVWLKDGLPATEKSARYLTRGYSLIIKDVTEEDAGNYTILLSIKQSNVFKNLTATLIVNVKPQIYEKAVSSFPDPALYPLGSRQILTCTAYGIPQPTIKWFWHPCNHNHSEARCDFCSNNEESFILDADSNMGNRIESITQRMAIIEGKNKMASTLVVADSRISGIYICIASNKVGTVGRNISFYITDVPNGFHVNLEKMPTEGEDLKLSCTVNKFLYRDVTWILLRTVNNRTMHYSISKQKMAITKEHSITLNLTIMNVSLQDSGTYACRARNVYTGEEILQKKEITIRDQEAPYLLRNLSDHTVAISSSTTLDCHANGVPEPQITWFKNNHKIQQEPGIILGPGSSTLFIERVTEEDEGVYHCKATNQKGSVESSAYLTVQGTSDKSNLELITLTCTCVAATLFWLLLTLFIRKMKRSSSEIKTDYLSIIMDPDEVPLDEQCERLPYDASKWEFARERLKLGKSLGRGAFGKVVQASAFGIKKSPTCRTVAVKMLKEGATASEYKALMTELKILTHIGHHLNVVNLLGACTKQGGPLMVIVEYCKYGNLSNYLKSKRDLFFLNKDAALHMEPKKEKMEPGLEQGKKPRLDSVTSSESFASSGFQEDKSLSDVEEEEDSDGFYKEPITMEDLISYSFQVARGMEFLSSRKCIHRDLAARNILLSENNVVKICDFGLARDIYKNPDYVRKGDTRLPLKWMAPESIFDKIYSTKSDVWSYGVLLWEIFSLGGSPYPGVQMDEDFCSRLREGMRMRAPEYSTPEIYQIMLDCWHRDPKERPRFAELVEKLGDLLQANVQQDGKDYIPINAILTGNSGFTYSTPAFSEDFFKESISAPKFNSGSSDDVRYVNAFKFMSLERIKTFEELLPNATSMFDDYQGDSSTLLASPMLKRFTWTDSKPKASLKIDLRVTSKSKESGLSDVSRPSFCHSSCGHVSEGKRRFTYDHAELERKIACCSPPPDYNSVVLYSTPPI

TBK1 (human) = TBK1 (human) (UniProt Q9UHD2)
TAOK1 (human) = TAOK1 (human) (UniProt Q7L7X3)
BRSK1 (human) = BRSK1 (human) (UniProt Q8TDC3)
YES1 (human) = YES1 (human) (UniProt P07947)
PRKCA (human) = PRKCA (human) (UniProt P17252)
EPHA2 (human) = EPHA2 (human) (UniProt P29317)
DYRK2 (human) = DYRK2 (human) (UniProt Q92630)
[1] = test system: AKT1 (human), P31749 [S473D]
Chain of AKT1 (human), P31749 [S473D] (P31749 whole entry S473D, looked up): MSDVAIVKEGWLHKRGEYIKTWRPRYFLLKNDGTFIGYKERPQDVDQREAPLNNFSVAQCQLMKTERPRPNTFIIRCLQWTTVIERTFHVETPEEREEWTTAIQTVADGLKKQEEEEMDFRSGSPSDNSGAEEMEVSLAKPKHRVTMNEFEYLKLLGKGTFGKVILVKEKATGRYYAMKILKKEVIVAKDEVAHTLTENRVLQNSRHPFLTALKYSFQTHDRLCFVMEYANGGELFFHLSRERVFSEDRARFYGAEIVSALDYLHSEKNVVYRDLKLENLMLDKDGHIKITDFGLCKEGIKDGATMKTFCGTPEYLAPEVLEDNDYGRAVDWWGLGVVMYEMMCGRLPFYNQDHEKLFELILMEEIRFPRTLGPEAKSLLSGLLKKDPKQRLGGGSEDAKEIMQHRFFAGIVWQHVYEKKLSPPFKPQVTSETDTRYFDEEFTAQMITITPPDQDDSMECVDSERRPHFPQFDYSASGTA

MARK3 (human) = MARK3 (human) (UniProt P27448)

Chain of CaMK1 (human) (Q14012 whole entry, looked up): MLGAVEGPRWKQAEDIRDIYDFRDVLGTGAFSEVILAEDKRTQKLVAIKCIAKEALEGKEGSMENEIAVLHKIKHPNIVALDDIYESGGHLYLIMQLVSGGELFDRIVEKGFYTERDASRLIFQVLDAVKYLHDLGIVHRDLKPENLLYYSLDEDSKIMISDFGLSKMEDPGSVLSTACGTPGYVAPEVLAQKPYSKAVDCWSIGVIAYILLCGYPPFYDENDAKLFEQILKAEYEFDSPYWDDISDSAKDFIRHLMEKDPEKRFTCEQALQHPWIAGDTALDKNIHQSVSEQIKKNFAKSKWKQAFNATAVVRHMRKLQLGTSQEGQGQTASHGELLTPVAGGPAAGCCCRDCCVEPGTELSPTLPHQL
Chain of BRSK2 (human) (Q8IWQ3 whole entry, looked up): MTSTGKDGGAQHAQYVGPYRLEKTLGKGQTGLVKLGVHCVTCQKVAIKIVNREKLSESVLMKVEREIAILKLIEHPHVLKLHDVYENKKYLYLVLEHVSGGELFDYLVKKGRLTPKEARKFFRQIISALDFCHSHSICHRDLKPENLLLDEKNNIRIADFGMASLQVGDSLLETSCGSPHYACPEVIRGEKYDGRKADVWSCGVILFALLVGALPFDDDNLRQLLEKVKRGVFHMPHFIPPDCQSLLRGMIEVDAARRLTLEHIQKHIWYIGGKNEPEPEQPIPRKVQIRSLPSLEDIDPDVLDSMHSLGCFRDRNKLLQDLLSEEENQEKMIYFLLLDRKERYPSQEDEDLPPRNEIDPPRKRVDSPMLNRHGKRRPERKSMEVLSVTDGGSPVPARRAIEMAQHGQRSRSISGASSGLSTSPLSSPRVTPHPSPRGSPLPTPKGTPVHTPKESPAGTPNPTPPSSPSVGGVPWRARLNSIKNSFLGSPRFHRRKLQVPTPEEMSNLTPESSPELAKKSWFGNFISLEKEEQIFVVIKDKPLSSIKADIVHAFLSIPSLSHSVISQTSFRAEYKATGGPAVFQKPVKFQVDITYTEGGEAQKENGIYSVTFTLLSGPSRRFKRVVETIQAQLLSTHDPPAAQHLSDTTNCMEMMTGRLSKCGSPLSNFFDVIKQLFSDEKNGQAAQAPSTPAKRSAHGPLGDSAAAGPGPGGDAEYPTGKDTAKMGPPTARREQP
Chain of MAP3K5 (human) (Q99683 whole entry, looked up): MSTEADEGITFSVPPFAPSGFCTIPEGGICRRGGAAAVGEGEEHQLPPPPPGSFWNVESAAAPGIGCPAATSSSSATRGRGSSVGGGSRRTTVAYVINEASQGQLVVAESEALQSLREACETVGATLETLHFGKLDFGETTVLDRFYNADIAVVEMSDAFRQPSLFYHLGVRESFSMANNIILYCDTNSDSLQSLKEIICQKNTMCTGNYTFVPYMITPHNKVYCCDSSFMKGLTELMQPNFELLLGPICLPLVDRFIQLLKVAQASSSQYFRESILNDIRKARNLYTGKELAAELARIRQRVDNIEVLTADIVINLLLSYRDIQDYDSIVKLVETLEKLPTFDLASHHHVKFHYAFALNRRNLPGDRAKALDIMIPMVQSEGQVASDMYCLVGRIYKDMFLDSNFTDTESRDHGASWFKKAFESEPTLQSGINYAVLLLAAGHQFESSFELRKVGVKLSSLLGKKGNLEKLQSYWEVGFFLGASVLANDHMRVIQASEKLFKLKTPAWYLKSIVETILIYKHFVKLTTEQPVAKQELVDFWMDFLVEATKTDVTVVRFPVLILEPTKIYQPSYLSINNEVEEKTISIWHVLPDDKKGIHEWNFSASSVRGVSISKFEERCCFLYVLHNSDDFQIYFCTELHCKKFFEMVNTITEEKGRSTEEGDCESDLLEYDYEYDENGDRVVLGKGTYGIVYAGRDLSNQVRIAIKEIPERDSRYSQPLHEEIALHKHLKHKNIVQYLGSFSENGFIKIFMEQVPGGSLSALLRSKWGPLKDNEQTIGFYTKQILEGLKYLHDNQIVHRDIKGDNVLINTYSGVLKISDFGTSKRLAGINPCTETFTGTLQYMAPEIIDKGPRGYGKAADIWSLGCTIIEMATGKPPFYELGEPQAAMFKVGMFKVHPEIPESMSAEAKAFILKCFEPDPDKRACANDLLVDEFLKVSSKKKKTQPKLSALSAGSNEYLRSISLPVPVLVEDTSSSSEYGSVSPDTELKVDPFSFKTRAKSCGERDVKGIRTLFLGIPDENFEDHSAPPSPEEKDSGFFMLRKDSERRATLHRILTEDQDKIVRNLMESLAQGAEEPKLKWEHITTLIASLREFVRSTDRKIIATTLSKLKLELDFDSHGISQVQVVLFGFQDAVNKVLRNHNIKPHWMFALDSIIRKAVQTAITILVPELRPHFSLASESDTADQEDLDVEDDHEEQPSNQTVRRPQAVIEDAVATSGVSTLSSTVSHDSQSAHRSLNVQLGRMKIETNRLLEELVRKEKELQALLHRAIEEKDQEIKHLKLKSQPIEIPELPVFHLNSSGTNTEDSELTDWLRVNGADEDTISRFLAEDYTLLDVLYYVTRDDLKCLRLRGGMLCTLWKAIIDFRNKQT

## NC(=O)c1cc(-c2ccnc(NC3CCCCC3)c2)nc(N2CCNCC2)c1
MAP2K1 (human); compound 1.0 µM
  residual activity: 77%
MAP2K1 (human); compound 10.0 µM
  residual activity: 49%
MAP3K5 (human); compound 0.1 µM
  residual activity: 98%
MAP3K5 (human); compound 1.0 µM
  residual activity: 84%
MAP3K5 (human); compound 10.0 µM
  residual activity: 21%
CaMK1 (human); compound 0.1 µM
  residual activity: 81%
CaMK1 (human); compound 1.0 µM
  residual activity: 20%
CaMK1 (human); compound 10.0 µM
  residual activity: 1%
STK3 (human); compound 0.1 µM
  residual activity: 103%
STK3 (human); compound 1.0 µM
  residual activity: 110%
STK3 (human); compound 10.0 µM
  residual activity: 98%
DYRK3 (human); compound 0.1 µM
  residual activity: 39%
DYRK3 (human); compound 1.0 µM
  residual activity: 14%
DYRK3 (human); compound 10.0 µM
  residual activity: 7%
BRSK2 (human); compound 0.1 µM
  residual activity: 67%
BRSK2 (human); compound 1.0 µM
  residual activity: 26%
BRSK2 (human); compound 10.0 µM
  residual activity: 8%
INSR (human); compound 0.1 µM
  residual activity: 89%
INSR (human); compound 1.0 µM
  residual activity: 86%
INSR (human); compound 10.0 µM
  residual activity: 93%
EPHB2 (human)
  residual activity: 105%
MAPK9 (human); compound 0.1 µM
  residual activity: 91%
MAPK9 (human); compound 10.0 µM
  residual activity: 35%
FLT1 (human); compound 0.1 µM
  residual activity: 95%
FLT1 (human); compound 1.0 µM
  residual activity: 88%
FLT1 (human); compound 10.0 µM
  residual activity: 68%
TBK1 (human); compound 1.0 µM
  residual activity: 88%
TBK1 (human); compound 10.0 µM
  residual activity: 30%
TAOK1 (human); compound 0.1 µM
  residual activity: 103%
TAOK1 (human); compound 10.0 µM
  residual activity: 53%
BRSK1 (human); compound 0.1 µM
  residual activity: 96%
BRSK1 (human); compound 1.0 µM
  residual activity: 73%
BRSK1 (human); compound 10.0 µM
  residual activity: 26%
YES1 (human); compound 0.1 µM
  residual activity: 107%
YES1 (human); compound 1.0 µM
  residual activity: 94%
YES1 (human); compound 10.0 µM
  residual activity: 76%
PRKCA (human); compound 0.1 µM
  residual activity: 97%
PRKCA (human); compound 1.0 µM
  residual activity: 95%
PRKCA (human); compound 10.0 µM
  residual activity: 90%
EPHA2 (human); compound 0.1 µM
  residual activity: 78%
EPHA2 (human); compound 1.0 µM
  residual activity: 99%
EPHA2 (human); compound 10.0 µM
  residual activity: 82%
DYRK2 (human); compound 0.1 µM
  residual activity: 74%
DYRK2 (human); compound 1.0 µM
  residual activity: 29%
DYRK2 (human); compound 10.0 µM
  residual activity: 10%
[1]; compound 0.1 µM
  residual activity: 109%
[1]; compound 1.0 µM
  residual activity: 106%
[1]; compound 10.0 µM
  residual activity: 94%
MARK3 (human); compound 0.1 µM
  residual activity: 92%
MARK3 (human); compound 1.0 µM
  residual activity: 40%
MARK3 (human); compound 10.0 µM
  residual activity: 15%
